The results in this text go back to patent US11148999B2, “Nitric oxide donors” (MedChem Partners, LLC, priority 2016, dated 2021).

System in one series: not listed separately
Kind of series: NO release in PBS versus rat plasma (Griess reaction). Type of series: in vitro ADME. Particulars: 100 μM in PBS versus rat plasma, 37° C., readings at 0 minutes, 30 minutes, 3 hours; classified and ranked on NO release behavior. As to the method: The compounds were dissolved in DMSO and added to PBS and then incubated at 37° C. NO release was measured using the Griess reaction at t=0, 30 minutes, and 3 hours. NO production in this assay was an indication of the hydrolytic instability of the capping group. […] Compounds were dissolved in DMSO and added to rat plasma and then incubated at 37° C. NO release was measured using the Griess reaction at t=0, 30 minutes, and 3 hours. Differences in the amount and rate of NO release reflect the kinetics of hydrolysis of the capping groups by proteases endogenous to the rat plasma. This experiment reflected the ability of compounds to release NO in vivo. For both panels A and B, the compounds tested are labelled as: 506-3-91 is Compound 31, 506-3-159 is Compound 33, 506-3-123 is Compound 32, 506-3-149 is Compound 30, 506-3-117 is Compound 26506-3-121 is Compound 29, 506-3-153 is Compound 27, 506-3-151 is Compound 28, 506-3-145 is Compound 7, 506-3-93 is Compound 10, 506-3-113 is Compound 4, 506-3-111 is Compound 11, 506-3-133 is Compound 12, 506-3-131 is Compound 13, 506-3-81 is Compound 14, 506-3-103 is Compound 18, 506-3-157 is Compound 19, 506-3-115 is Compound 9, 506-3-143 is Compound 6, and 506-3-147 is Compound 8. For all compounds, three time points are shown (left to right for each labelled compound): 0 time point, 30 minutes time point, and 3 hours time point.
Compounds were tested for release of NO in PBS versus rat plasma using the Griess reaction. The Griess reaction works by the colorimetric measurement of nitrite levels which is the primary breakdown product of NO. To determine stability, as well as NO release behavior in a biological environment, the compounds were tested for NO release in both PBS and rat plasma at 37° C. […]
Additional experiments were carried out to test the NO release capability of 100 μM of the compounds in PBS versus Rat Plasma. In these experiments, NO release kinetics was explored by taking readings at 0 minutes, 30 minutes, and 3 hours. The results are shown in FIG. 2, panels A and B. From these studies, the compounds were classified and ranked based on their NO release behavior as shown in the Table below.
On the technique in general: The Griess reaction detects nitrite, a stable product of nitric oxide.
In the case of `CCN(CC)/[N+]([O-])=N/OC(C)OC(=O)OC(C)(C)C` (stereo not shown) [Compound 506-3-133, (Z)-3-ethyl-7,11,11-trimethyl-9-oxo-6,8,10-trioxa-3,4,5-triazadodec-4-ene 4-oxide], the “Release Behavior” value is recorded as “unstable”.

Take `CSCO/N=[N+](\[O-])N1CCCC1CO` (stereo not shown) [Compound 506-3-123, (Z)-1-(2-(hydroxymethyl)pyrrolidin-1-yl)-2-((methylthio)methoxy)diazene oxide]: the “Release Behavior” value is reported as “slow/low release”. With `O=C1c2ccccc2C(=O)N1CO/N=[N+](\[O-])N1CCCC1CO` (stereo not shown) [Compound 506-3-91, (Z)-2-((1,3-dioxoisoindolin-2-yl)methoxy)-1-(2-(hydroxymethyl)pyrrolidin-1-yl)diazene oxide], the “Release Behavior” value is listed as “unstable”. Turning to `CCCC(=O)OCO/N=[N+](\[O-])N(CC)CC` [Compound 506-3-143, (Z)-1-((butyryloxy)methoxy)-3,3-diethyltriaz-1-ene 2-oxide], the “Release Behavior” value was “intermediate”.

For `CCN(CC)/[N+]([O-])=N/OCN1C(=O)c2ccccc2C1=O` [Compound 506-3-81, (Z)-1-((1,3-dioxoisoindolin-2-yl)methoxy)-3,3-diethyltriaz-1-ene 2-oxide], the “Release Behavior” value is recorded as “unstable”. The same measure, in the same setting: as for `CCN(CC)/[N+]([O-])=N/OCOC(=O)[C@@H](NC(=O)OC(C)(C)C)C(C)C` [Compound 506-3-113, (S,Z)-3-ethyl-10-isopropyl-14,14-dimethyl-9,12-dioxo-6,8,13-trioxa-3,4,5,11-tetraazapentadec-4-ene 4-oxide], the entry is “slow onset”.

`CCN(CC)/[N+]([O-])=N/OC[S+](C)[O-]` (stereo not shown) [Compound 506-3-157, (Z)-3,3-diethyl-1-((methylsulfinyl)methoxy)triaz-1-ene 2-oxide]: the “Release Behavior” value was “slow/low release”. Turning to `O=C(OCO/N=[N+](\[O-])N1CCCC1CO)c1ccccc1` (stereo not shown) [Compound 506-3-151, (Z)-2-((benzoyloxy)methoxy)-1-(2-(hydroxymethyl)pyrrolidin-1-yl)diazene oxide], the “Release Behavior” value is given as “slow onset”. Still for that read-out and setting: in the case of `CC(C)(C)C(=O)OCO/N=[N+](\[O-])N1CCCC1CO` (stereo not shown) [Compound 506-3-117, (Z)-1-(2-(hydroxymethyl)pyrrolidin-1-yl)-2-((pivaloyloxy)methoxy)diazene oxide] it was “steady”. The same measure, in the same setting: as for `CC(C)OC(=O)OCO/N=[N+](\[O-])N1CCCC1CO` (stereo not shown) [Compound 506-3-121, (Z)-1-(2-(hydroxymethyl)pyrrolidin-1-yl)-2-(((isopropoxycarbonyl)oxy)methoxy)diazene oxide], the entry is “slow/low release”. The same measure, in the same setting: as for `CCCCCCCCCCC(=O)OCO/N=[N+](\[O-])N(CC)CC` [Compound 506-3-111, (Z)-3,3-diethyl-1-((undecanoyloxy)methoxy)triaz-1-ene 2-oxide], the entry is “quick/long release”; as for `CCC(CC)C(=O)OCO/N=[N+](\[O-])N1CCCC1CO` (stereo not shown) [Compound 506-3-149, (Z)-2-(((2-ethylbutanoyl)oxy)methoxy)-1-(2-(hydroxymethyl)pyrrolidin-1-yl)diazene oxide], “slow onset”. With `C[S+]([O-])CO/N=[N+](\[O-])N1CCCC1CO` (stereo not shown) [Compound 506-3-159, (Z)-1-(2-(hydroxymethyl)pyrrolidin-1-yl)-2-((methylsulfinyl)methoxy)diazene oxide], the “Release Behavior” value is reported as “slow/low release”. On the same count and under the same terms, as for `CCCC(=O)OCO/N=[N+](\[O-])N1CCCC1CO` (stereo not shown) [Compound 506-3-153, (Z)-2-((butyryloxy)methoxy)-1-(2-(hydroxymethyl)pyrrolidin-1-yl)diazene oxide], the entry is “steady/low”; as for `CCN(CC)/[N+]([O-])=N/OC(C)OC(=O)OC(C)C` (stereo not shown) [Compound 506-3-131, (Z)-3-ethyl-7,11-dimethyl-9-oxo-6,8,10-trioxa-3,4,5-triazadodec-4-ene 4-oxide], “steady/low”.

Consider `CCN(CC)/[N+]([O-])=N/OCOC(=O)c1ccccc1` [Compound 506-3-145, (Z)-1-((benzoyloxy)methoxy)-3,3-diethyltriaz-1-ene 2-oxide], for which the “Release Behavior” value is “steady”. On to `CCC(CC)C(=O)OCO/N=[N+](\[O-])N(CC)CC` [Compound 506-3-115, (Z)-3,3-diethyl-1-(((2-ethylbutanoyl)oxy)methoxy)triaz-1-ene 2-oxide], for which the “Release Behavior” value is on record as “slow onset”.

For the compound `CCN(CC)/[N+]([O-])=N/OCOC(=O)C(C)(C)NC(=O)OC(C)(C)C` [Compound 506-3-93, (Z)-3-ethyl-10,10,14,14-tetramethyl-9,12-dioxo-6,8,13-trioxa-3,4,5,11-tetraazapentadec-4-ene 4-oxide], the “Release Behavior” value is “slow/low release”. Same read-out and setting: as for `CCN(CC)/[N+]([O-])=N/OCSC` [Compound 506-3-103, (Z)-3,3-diethyl-1-((methylthio)methoxy)triaz-1-ene 2-oxide], the entry is “slow/low release”.

System in a further series: not listed separately
Kind of series: Stability of the pure compound on storage. Type of series: physicochemical.
Settings: not given
`CCCCCCCCCCC(=O)OCO/N=[N+](\[O-])N(CC)CC` [Compound 506-3-111, (Z)-3,3-diethyl-1-((undecanoyloxy)methoxy)triaz-1-ene 2-oxide]: the “stability of the pure compound” value is on record as “stable for over one year”.

The test system of another series is diabetic Lep/r-db/db mice. Nature of the series: Initial dose range wound healing study, murine diabetic wound model, PVA gel. Type of series: in vivo. Conditions: PVA gel with 10, 50, 100 uM test article versus PVA gel alone, applied twice a day, day 7, 1-cm^2 full-thickness wound. As to the method: A murine diabetic wound model for utilized to test the ability of the gel formulation of the invention to accelerate wound healing. Specifically, diabetic Lep/r-db/db mice were used to study the effects of the gel formulation on granulation tissue thickness, density of α-smooth muscle actin-positive myofibroblasts, wound healing kinetics, blood vessel density, cell proliferation, and tissue ingrowth.
An initial dose range study was performed to study the effects of the compounds of the invention on wound healing. Five homozygous diabetic 8-12 weeks old, Lep/r-db/db male mice (strain C57BL/KsJ-Leprdb) were anesthetized with 60 mg/kg pentobarbital and disinfected with 70% alcohol. Subsequently, a 1-cm^2 full-thickness wound was excised on the dorsa of the mice. The mice were then treated with either PVA gel containing no test article (Control), PVA gel containing test article (i.e., compound 506-3-111) at 10 uM concentration, PVA gel containing test article at 50 uM concentration, or PVA gel containing test article at 100 uM concentration. Immediately after wounding, the experimental groups had the NO releasing gel material applied to the wound twice a day and the control group had only the un-medicated gel applied to the wound. Dressing changes were performed twice daily. […]
As for `CCCCCCCCCCC(=O)OCO/N=[N+](\[O-])N(CC)CC` [Compound 506-3-111, (Z)-3,3-diethyl-1-((undecanoyloxy)methoxy)triaz-1-ene 2-oxide], the wound size entry is recorded as “clear dose dependent reduction in wound size”.

Staying with this series, now noted: PVA gel, 10 to 100 uM, topical twice a day, 7 days.
In the case of `CCCCCCCCCCC(=O)OCO/N=[N+](\[O-])N(CC)CC` [Compound 506-3-111, (Z)-3,3-diethyl-1-((undecanoyloxy)methoxy)triaz-1-ene 2-oxide], the “tolerability (adverse effects or toxicity)” value is listed as “well tolerated with no adverse effects or toxicity even at the highest dose”.
